Test results taken from patent US4471115A, “Water soluble derivatives of cephalex and process for their preparation” (Neopharmed S.p.A., priority 1980, dated 1984).
Structures can show the parent of a compound that is named as a salt.

Legend:
[1] = well known; cited from earlier work
Solubility = type: physicochemical; settings: for Solubility in alcohols: ethanol / absolute alcohols
[2] = Cephalexin microbiological title
pH of the water solution = type: physicochemical; settings: water solution obtained in the preparation
Procedure: After about 10 minutes of stirring under the above conditions, a 50% solution of 14 g of lysine base was slowly added. The reaction mixture was little by little solubilized and the pH final value of the resulting solution was 7.5. The volume of the obtained solution was brought to the end value of 150 mls by adding cold distilled water. It was then sterile filtered and frozen in a prefreezer at -70° C. and finally lyophilized.

[3] = Toxicity in the mouse (LD50); settings: in vivo
Text: (§1) Pharmacological and clinical tests have been carried out with the compounds of the invention and the results related to the lysine salt of 2-N-methylolcephalexin are hereinafter reported for illustrative purpose.

clinical = settings: human, in vivo, po
[4] = Toxicity in the rat (LD50); settings: in vivo, po, per os
Text: as §1

[5] = in vivo, po

Row | SMILES | Solubility in alcohols (Solubility) | Solubility in water (Solubility) | Cephalexin microbiological title [2] | Final pH of the resulting solution (pH of the water solution) | also measured
1 | CC1=C(C(=O)O)N2C(=O)[C@@H](NC(=O)[C@H](N)c3ccccc3)[C@H]2SC1 [cephalexin, 7-(D-2-amino-2-phenylacetamido)-3-methyl-Δ^3-4-carboxylic acid] |  |  |  |  | Antibiotic utility [1]: wide spectrum antibiotic
2 | CC1=C(C(=O)O)N2C(=O)[C@@H](NC(=O)[C@H](NCO)c3ccccc3)[C@H]2SC1 [Example 2, Sodium salt of 2-N-methylol-cephalexin] | little soluble in ethanol and absolute alcohols | highly water soluble | 99 to 102 % of theoretical value | 7.1 | 
3 | CC1=C(C(=O)O)N2C(=O)[C@@H](NC(=O)[C@H](NCO)c3ccccc3)[C@H]2SC1 [Example 1, Lysine salt of 2-N-methylol-cephalexin] | little soluble in absoluble alcohols | cold soluble in water | 99 to 100 % of theoretical value | 7.5 | LD50 ([3]; ip, intraperitoneal administration): 3100 mg/kg; LD50 ([3]; oral administration): > 4000 mg/kg; dose excreted at 24 h (clinical): 87%; LD50 [4]: > 4000 mg/kg
4 | CC1=C(C(=O)O)N2C(=O)[C@@H](NC(=O)[C@H](N)c3ccccc3)[C@H]2SC1 [substance B, cephalexin monohydrated] |  |  |  |  | Presence in the blood stream [5]: higher; Time after administration at which actives concentrations are detected [5]: more than 6 hours
